The text below walks through data of patent publication US20260028326A1, “COMPOUND BASED ON ISOINDOLINE-SUBSTITUTED GLUTARIMIDE BACKBONE AND USE THEREOF” (GLUETACS THERAPEUTICS (SHANGHAI) CO., LTD., priority 2022, published 2026).

Chain of human Cereblon WT GST-tagged protein (Q96SW2 whole entry): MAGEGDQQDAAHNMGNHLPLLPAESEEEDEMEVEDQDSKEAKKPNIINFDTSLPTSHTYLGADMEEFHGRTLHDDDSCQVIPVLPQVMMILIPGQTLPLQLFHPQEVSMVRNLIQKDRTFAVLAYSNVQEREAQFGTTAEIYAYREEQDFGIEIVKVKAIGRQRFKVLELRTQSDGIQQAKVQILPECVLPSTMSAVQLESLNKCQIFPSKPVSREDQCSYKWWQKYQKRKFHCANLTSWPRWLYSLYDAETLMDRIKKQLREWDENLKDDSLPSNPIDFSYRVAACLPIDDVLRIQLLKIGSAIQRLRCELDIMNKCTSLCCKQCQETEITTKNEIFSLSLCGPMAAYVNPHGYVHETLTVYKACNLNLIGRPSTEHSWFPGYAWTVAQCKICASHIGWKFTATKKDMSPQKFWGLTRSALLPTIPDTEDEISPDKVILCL

The target in this assay is human Cereblon WT GST-tagged protein (Homo sapiens (Human), UniProt Q96SW2). Nature of the assay: CRBN-binding affinity, HTRF (CEREBLON BINDING kit). An outline of the steps:
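HTRF competition readout: compounds compete with a thalidomide-Re conjugate for GST-tagged wild-type human CRBN detected via Eu-labelled anti-GST antibody. Inhibition rate derived relative to protein-free blank wells.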
The compound `O=C1CCC(N2Cc3cc(NC4CN(C(=O)c5ccccc5-c5ccc(Cl)cc5)C4)ccc3C2=O)C(=O)N1` (centres unmarked) [GT-04397, 3-(5-((1-(4′-chloro-[1,1′-biphenyl]-2-carbonyl)azetidin-3-yl)amino)-1-oxoisoindolin-2-yl)piperidine-2,6-dione] displayed an IC50 of 200 nM.

`CC1(C)CCC(CN2CC(O)(C(O)c3ccc4c(c3)CN(C3CCC(=O)NC3=O)C4=O)C2)=C(c2ccc(F)cc2)C1` (centres unmarked) [GT-05499, 3-(5-((1-((4′-fluoro-5,5-dimethyl-3,4,5,6-tetrahydro-[1,1′-biphenyl]-2-yl)methyl)-3-hydroxyazetidin-3-yl)(hydroxy)methyl)-1-oxoisoindolin-2-yl)piperidine-2,6-dione]: the IC50 was 670 nM.

As for `CC1(C)CCC(CN2CC3CC(C2)N3C(=O)c2ccc3c(c2)CN(C2CCC(=O)NC2=O)C3=O)=C(c2ccc(Cl)cc2)C1` (centres unmarked) [GT-05440, 3-(5-(3-((4′-chloro-5,5-dimethyl-3,4,5,6-tetrahydro-[1,1′-biphenyl]-2-yl)methyl)-3,6-diazabicyclo[3.1.1]heptane-6-carbonyl)-1-oxoisoindolin-2-yl)piperidine-2,6-dione], the concentration for half-maximal inhibition (IC50) came out at 940 nM.

In turn, `CC1(C)CCC(C(=O)N2CCN(Cc3cc(F)c4c(c3)CN(C3CCC(=O)NC3=O)C4=O)CC2)=C(c2ccc(Cl)cc2)C1` (centres unmarked) [GT-05527, 3-(5-((4-(4′-chloro-5,5-dimethyl-3,4,5,6-tetrahydro-[1,1′-biphenyl]-2-carbonyl)piperazin-1-yl)methyl)-7-fluoro-1-oxoisoindolin-2-yl)piperidine-2,6-dione] had an IC50 of 990 nM.

`CC1(C)CCC(CN2CC3CN(Cc4ccc5c(c4)CN(C4CCC(=O)NC4=O)C5=O)CC3C2)=C(c2ccc(F)cc2)C1` (centres unmarked) [GT-05398, 3-(5-((5-((4′-fluoro-5,5-dimethyl-3,4,5,6-tetrahydro-[1,1′-biphenyl]-2-yl)methyl)hexahydropyrrolo[3,4-c]pyrrol-2(1H)-yl)methyl)-1-oxoisoindolin-2-yl)piperidine-2,6-dione] yielded a concentration for half-maximal inhibition (IC50) of 1050 nM.

For `O=C1CCC(N2Cc3c(CN4CCN(CC5=C(c6ccc(F)cc6)CCCC5)CC4)cccc3C2=O)C(=O)N1` (centres unmarked) [GT-05861, 3-(4-((4-((4′-fluoro-3,4,5,6-tetrahydro-[1,1′-biphenyl]-2-yl)methyl)piperazin-1-yl)methyl)-1-oxoisoindolin-2-yl)piperidine-2,6-dione], the IC50 was 1290 nM.

`CC1(C)CCC(CN2CC3CC2CN3C(=O)c2ccc3c(c2)CN(C2CCC(=O)NC2=O)C3=O)=C(c2ccc(F)cc2)C1` (centres unmarked) [GT-05452, 3-(5-(5-((4′-fluoro-5,5-dimethyl-3,4,5,6-tetrahydro-[1,1′-biphenyl]-2-yl)methyl)-2,5-diazabicyclo[2.2.1]heptane-2-carbonyl)-1-oxoisoindolin-2-yl)piperidine-2,6-dione] came in with an IC50 of 440 nM.

`CC1(C)CCC(C(=O)N2C3CC2CN(C(=O)c2ccc4c(c2)CN(C2CCC(=O)NC2=O)C4=O)C3)=C(c2ccc(Cl)cc2)C1` (centres unmarked) [GT-05661, 3-(5-(6-(4′-chloro-5,5-dimethyl-3,4,5,6-tetrahydro-[1,1′-biphenyl]-2-carbonyl)-3,6-diazabicyclo[3.1.1]heptane-3-carbonyl)-1-oxoisoindolin-2-yl)piperidine-2,6-dione] displayed an IC50 of 960 nM.

Consider `CC1(C)CCC(CN2C[C@@H]3C[C@H]2CN3C(=O)c2ccc3c(c2)CN(C2CCC(=O)NC2=O)C3=O)=C(c2ccc(Cl)cc2)C1` (stereo partly drawn) [GT-05442, 3-(5-((1S,4S)-5-((4′-chloro-5,5-dimethyl-3,4,5,6-tetrahydro-[1,1′-biphenyl]-2-yl)methyl)-2,5-diazabicyclo[2.2.1]heptane-2-carbonyl)-1-oxoisoindolin-2-yl)piperidine-2,6-dione], for which the IC50 was 670 nM.

As for `CC1(C)CCC(C(=O)N2C3CCC2CN(Cc2ccc4c(c2)CN(C2CCC(=O)NC2=O)C4=O)C3)=C(c2ccc(F)cc2)C1` (centres unmarked) [GT-05517, 3-(5-((8-(4′-fluoro-5,5-dimethyl-3,4,5,6-tetrahydro-[1,1′-biphenyl]-2-carbonyl)-3,8-diazabicyclo[3.2.1]octan-3-yl)methyl)-1-oxoisoindolin-2-yl)piperidine-2,6-dione], the IC50 is 600 nM.

Regarding `O=C1CCC(N2Cc3cc(-c4ccc(CN5CCN(C(=O)c6ccccc6-c6ccc(Cl)cc6)CC5)cc4)ccc3C2=O)C(=O)N1` (centres unmarked) [GT-05874, 3-(5-(4-((4-(4′-chloro-[1,1′-biphenyl]-2-carbonyl)piperazin-1-yl)methyl)phenyl)-1-oxoisoindolin-2-yl)piperidine-2,6-dione], the IC50 worked out at 440 nM.

`CC1(C)CCC(CN2CC3CCC(C2)N3c2ccc3c(c2)CN(C2CCC(=O)NC2=O)C3=O)=C(c2ccc(F)cc2)C1` (centres unmarked) [GT-05498, 3-(5-(3-((4′-fluoro-5,5-dimethyl-3,4,5,6-tetrahydro-[1,1′-biphenyl]-2-yl)methyl)-3,8-diazabicyclo[3.2.1]octan-8-yl)-1-oxoisoindolin-2-yl)piperidine-2,6-dione] showed an IC50 of 1520 nM.

`O=C1CCC(N2Cc3cc(C(=O)N4C5CCC4CN(Cc4ccccc4-c4ccc(Cl)cc4)C5)ccc3C2=O)C(=O)N1` (centres unmarked) [GT-05638, 3-(5-(3-((4′-chloro-[1,1′-biphenyl]-2-yl)methyl)-3,8-diazabicyclo[3.2.1]octane-8-carbonyl)-1-oxoisoindolin-2-yl)piperidine-2,6-dione] gave an IC50 of 1210 nM.

Regarding `CC1(C)CCC(CN2CCN(C(=O)c3ccc4c(c3)CN(C3CCC(=O)NC3=O)C4=O)CC2)=C(c2ccc(Cl)cc2)C1` (centres unmarked) [GT-05445, 3-(5-(4-((4′-chloro-5,5-dimethyl-3,4,5,6-tetrahydro-[1,1′-biphenyl]-2-yl)methyl)piperazine-1-carbonyl)-1-oxoisoindolin-2-yl)piperidine-2,6-dione], the IC50 is 1910 nM.

On to `O=C1CCC(N2Cc3cc(NC4CCN(Cc5ccccc5-c5ccc(Cl)cc5)CC4)ccc3C2=O)C(=O)N1` (centres unmarked) [GT-03877, 3-(5-((1-((4′-chloro-[1,1′-biphenyl]-2-yl)methyl)piperidin-4-yl)amino)-1-oxoisoindolin-2-yl)piperidine-2,6-dione], for which the half-inhibitory concentration (IC50) was 1400 nM.

As for `CC1(C)CCC(C(=O)N2CCC(Cc3ccc4c(c3)CN(C3CCC(=O)NC3=O)C4=O)CC2)=C(c2ccc(Cl)cc2)C1` (centres unmarked) [GT-05418, 3-(5-((1-(4′-chloro-5,5-dimethyl-3,4,5,6-tetrahydro-[1,1′-biphenyl]-2-carbonyl)piperidin-4-yl)methyl)-1-oxoisoindolin-2-yl)piperidine-2,6-dione], the IC50 amounted to 540 nM.

With `CC1(C)CCC(C(=O)N2CCN(Cc3cccc4c3CN(C3CCC(=O)NC3=O)C4=O)CC2)=C(c2ccc(Cl)cc2)C1` (centres unmarked) [GT-05528, 3-(4-((4-(4′-chloro-5,5-dimethyl-3,4,5,6-tetrahydro-[1,1′-biphenyl]-2-carbonyl)piperazin-1-yl)methyl)-1-oxoisoindolin-2-yl)piperidine-2,6-dione], the IC50 was found to be 1930 nM.

The compound `O=C1CCC(N2Cc3cc(CN4CC5CCC4CN5C(=O)c4ccccc4-c4ccc(Cl)cc4)ccc3C2=O)C(=O)N1` (centres unmarked) [GT-05543, 3-(5-((5-(4′-chloro-[1,1′-biphenyl]-2-carbonyl)-2,5-diazabicyclo[2.2.2]octan-2-yl)methyl)-1-oxoisoindolin-2-yl)piperidine-2,6-dione] yielded an IC50 of 450 nM.

In the case of `O=C1CCC(N2Cc3cc(C(=O)N4CC5CC4CN5Cc4ccccc4-c4ccc(Cl)cc4)ccc3C2=O)C(=O)N1` (centres unmarked) [GT-05639, 3-(5-(5-((4′-chloro-[1,1′-biphenyl]-2-yl)methyl)-2,5-diazabicyclo[2.2.1]heptane-2-carbonyl)-1-oxoisoindolin-2-yl)piperidine-2,6-dione], the IC50 turned out to be 780 nM.

The compound `CC1(C)CCC(CN2C3CCC2CN(Cc2ccc4c(c2F)CN(C2CCC(=O)NC2=O)C4=O)C3)=C(c2ccc(Cl)cc2)C1` (centres unmarked) [GT-05534, 3-(5-((8-((4′-chloro-5,5-dimethyl-3,4,5,6-tetrahydro-[1,1′-biphenyl]-2-yl)methyl)-3,8-diazabicyclo[3.2.1]octan-3-yl)methyl)-4-fluoro-1-oxoisoindolin-2-yl)piperidine-2,6-dione] registered an IC50 of 1170 nM.

As for `O=C1CCC(N2Cc3cc(C(=O)N4CCN(C(=O)C5=C(c6ccc(F)cc6)CCCC5)CC4)ccc3C2=O)C(=O)N1` (centres unmarked) [GT-05448, 3-(5-(4-(4′-fluoro-3,4,5,6-tetrahydro-[1,1′-biphenyl]-2-carbonyl)piperazine-1-carbonyl)-1-oxoisoindolin-2-yl)piperidine-2,6-dione], the half-inhibitory concentration (IC50) is 1390 nM.

In turn, `CC1(C)CCC(CN2C3CC2CN(c2ccc4c(c2)C(=O)N(C2CCC(=O)NC2=O)C4=O)C3)=C(c2ccc(Cl)cc2)C1` (centres unmarked) [GT-05378, 5-(6-((4′-chloro-5,5-dimethyl-3,4,5,6-tetrahydro-[1,1′-biphenyl]-2-yl)methyl)-3,6-diazabicyclo[3.1.1]heptan-3-yl)-2-(2,6-dioxopiperidin-3-yl)isoindoline-1,3-dione] had an IC50 of 1770 nM.

Consider `O=C1CCC(N2Cc3cc(CN4CC5CC4CN5C(=O)c4ccccc4-c4ccc(Cl)cc4)ccc3C2=O)C(=O)N1` (centres unmarked) [GT-05776, 3-(5-((5-(4′-chloro-[1,1′-biphenyl]-2-carbonyl)-2,5-diazabicyclo[2.2.1]heptan-2-yl)methyl)-1-oxoisoindolin-2-yl)piperidine-2,6-dione], for which the IC50 came out at 420 nM.

`O=C1CCC(N2Cc3cc(C(=O)N4CCCN(Cc5ccccc5-c5ccc(Cl)cc5)CC4)ccc3C2=O)C(=O)N1` (centres unmarked) [GT-05616, 3-(5-(4-((4′-chloro-[1,1′-biphenyl]-2-yl)methyl)-1,4-diazepane-1-carbonyl)-1-oxoisoindolin-2-yl)piperidine-2,6-dione] yielded an IC50 of 900 nM.

In turn, `O=C1CCC(N2C(=O)c3ccc(N4CC5CC(C4)N5Cc4ccccc4-c4ccc(Cl)cc4)cc3C2=O)C(=O)N1` (centres unmarked) [GT-05373, 5-(6-((4′-chloro-[1,1′-biphenyl]-2-yl)methyl)-3,6-diazabicyclo[3.1.1]heptan-3-yl)-2-(2,6-dioxopiperidin-3-yl)isoindoline-1,3-dione] gave an IC50 of 1490 nM.

As for `CC1(C)CCC(C(=O)N2CCC(Nc3ccc4c(c3)CN(C3CCC(=O)NC3=O)C4=O)CC2)=C(c2ccc(F)cc2)C1` (centres unmarked) [GT-05786, 3-(5-((1-(4′-fluoro-5,5-dimethyl-3,4,5,6-tetrahydro-[1,1′-biphenyl]-2-carbonyl)piperidin-4-yl)amino)-1-oxoisoindolin-2-yl)piperidine-2,6-dione], the IC50 was 1070 nM.
